Assay results as given in ChEMBL document CHEMBL1671713, “Synergy of caspofungin with human polymorphonuclear granulocytes for killing Candida albicans” (2010).

Columns and labels:
Type in all cases: functional
[1] = test system: Candida albicans; assay: Potentiation of human polymorphonuclear granulocytes-induced intracellular killing of Candida albicans at 2 ug/ml after 30 mins (Rvb =46%)
[2] = test system: Candida albicans; assay: Potentiation of human polymorphonuclear granulocytes-induced intracellular killing of Candida albicans at 2 ug/ml after 60 mins (Rvb =47%)
[3] = test system: Candida albicans; assay: Potentiation of human polymorphonuclear granulocytes-induced intracellular killing of Candida albicans at 2 ug/ml after 90 mins (Rvb =48%)
[4] = test system: Candida albicans; assay: Potentiation of human polymorphonuclear granulocytes-induced intracellular killing of Candida albicans at 3.2 ug/ml after 30 mins (Rvb =46%)
[5] = test system: Candida albicans; assay: Potentiation of human polymorphonuclear granulocytes-induced intracellular killing of Candida albicans at 3.2 ug/ml after 60 mins (Rvb =47%)
[6] = test system: Candida albicans; assay: Potentiation of human polymorphonuclear granulocytes-induced intracellular killing of Candida albicans at 3.2 ug/ml after 90 mins (Rvb =48%)
[7] = test system: Candida albicans; assay: Potentiation of human polymorphonuclear granulocytes-induced intracellular killing of Candida albicans at 8 ug/ml after 30 mins (Rvb =46%)
[8] = test system: Candida albicans; assay: Potentiation of human polymorphonuclear granulocytes-induced intracellular killing of Candida albicans at 8 ug/ml after 60 mins (Rvb =47%)
[9] = test system: Candida albicans; assay: Potentiation of human polymorphonuclear granulocytes-induced intracellular killing of Candida albicans at 8 ug/ml after 90 mins (Rvb =48%)
[10] = test system: Candida albicans; assay: Potentiation of human polymorphonuclear granulocytes-induced intracellular killing of compound pretreated Candida albicans for 1hr at 2 ug/ml after 30 mins (Rvb =46%)
[11] = test system: Candida albicans; assay: Potentiation of human polymorphonuclear granulocytes-induced intracellular killing of compound pretreated Candida albicans for 1hr at 2 ug/ml after 60 mins (Rvb =47%)
[12] = test system: Candida albicans; assay: Potentiation of human polymorphonuclear granulocytes-induced intracellular killing of compound pretreated Candida albicans for 1hr at 2 ug/ml after 90 mins (Rvb =48%)
[13] = test system: Candida albicans; assay: Potentiation of human polymorphonuclear granulocytes-induced intracellular killing of compound pretreated Candida albicans for 1hr at 3.2 ug/ml after 30 mins (Rvb =46%)
[14] = test system: Candida albicans; assay: Potentiation of human polymorphonuclear granulocytes-induced intracellular killing of compound pretreated Candida albicans for 1hr at 3.2 ug/ml after 60 mins (Rvb =47%)
[15] = test system: Candida albicans; assay: Potentiation of human polymorphonuclear granulocytes-induced intracellular killing of compound pretreated Candida albicans for 1hr at 3.2 ug/ml after 90 mins (Rvb =48%)
[16] = test system: Candida albicans; assay: Potentiation of human polymorphonuclear granulocytes-induced intracellular killing of compound pretreated Candida albicans for 1hr at 8 ug/ml after 30 mins (Rvb =46%)
[17] = test system: Candida albicans; assay: Potentiation of human polymorphonuclear granulocytes-induced intracellular killing of compound pretreated Candida albicans for 1hr at 8 ug/ml after 60 mins (Rvb =47%)
[18] = test system: Candida albicans; assay: Potentiation of human polymorphonuclear granulocytes-induced intracellular killing of compound pretreated Candida albicans for 1hr at 8 ug/ml after 90 mins (Rvb =48%)
[19] = test system: Candida albicans; assay: Potentiation of compound pretreated human polymorphonuclear granulocytes-induced intracellular killing of Candida albicans at 2 ug/ml after 30 mins (Rvb =46%)
[20] = test system: Candida albicans; assay: Potentiation of compound pretreated human polymorphonuclear granulocytes-induced intracellular killing of Candida albicans at 2 ug/ml after 60 mins (Rvb =47%)
[21] = test system: Candida albicans; assay: Potentiation of compound pretreated human polymorphonuclear granulocytes-induced intracellular killing of Candida albicans at 2 ug/ml after 90 mins (Rvb =48%)
[22] = test system: Candida albicans; assay: Potentiation of compound pretreated human polymorphonuclear granulocytes-induced intracellular killing of Candida albicans at 3.2 ug/ml after 30 mins (Rvb =46%)
[23] = test system: Candida albicans; assay: Potentiation of compound pretreated human polymorphonuclear granulocytes-induced intracellular killing of Candida albicans at 3.2 ug/ml after 60 mins (Rvb =47%)
[24] = test system: Candida albicans; assay: Potentiation of compound pretreated human polymorphonuclear granulocytes-induced intracellular killing of Candida albicans at 3.2 ug/ml after 90 mins (Rvb =48%)
[25] = test system: Candida albicans; assay: Potentiation of compound pretreated human polymorphonuclear granulocytes-induced intracellular killing of Candida albicans at 8 ug/ml after 30 mins (Rvb =46%)
[26] = test system: Candida albicans; assay: Potentiation of compound pretreated human polymorphonuclear granulocytes-induced intracellular killing of Candida albicans at 8 ug/ml after 60 mins (Rvb =47%)
[27] = test system: Candida albicans; assay: Potentiation of compound pretreated human polymorphonuclear granulocytes-induced intracellular killing of Candida albicans at 8 ug/ml after 90 mins (Rvb =48%)

Question: CC[C@H](C)C[C@H](C)CCCCCCCCC(=O)N[C@H]1C[C@@H](O)[C@@H](NCCN)NC(=O)[C@@H]2[C@@H](O)CCN2C(=O)[C@H]([C@H](O)CCN)NC(=O)[C@H]([C@H](O)[C@@H](O)c2ccc(O)cc2)NC(=O)[C@@H]2C[C@@H](O)CN2C(=O)[C@H]([C@@H](C)O)NC1=O [CASPOFUNGIN] was tested. Which Activity [1] did it give?
Answer: The Activity was 71%.

Question: What about the Activity [2] of the same molecule?
Answer: Its Activity is 72%.

Question: And the Activity [3]?
Answer: Its Activity is 75%.

Question: What about the Activity [4] of the same molecule?
Answer: The Activity was 72%.

Question: What about the Activity [5] of the same molecule?
Answer: The Activity was 75%.

Question: And the Activity [6]?
Answer: Its Activity is 86%.

Question: What about the Activity [7] of the same molecule?
Answer: Its Activity is 74%.

Question: What about the Activity [8] of the same molecule?
Answer: Its Activity is 83%.

Question: And the Activity [9]?
Answer: Its Activity is 83%.

Question: What about the Activity [10] of the same molecule?
Answer: The Activity was 69%.

Question: And the Activity [11]?
Answer: The Activity was 69%.

Question: And the Activity [12]?
Answer: Its Activity is 82%.

Question: What about the Activity [13] of the same molecule?
Answer: The Activity was 63%.

Question: And the Activity [14]?
Answer: The Activity was 74%.

Question: What about the Activity [15] of the same molecule?
Answer: Its Activity is 78%.

Question: What about the Activity [16] of the same molecule?
Answer: Its Activity is 63%.

Question: And the Activity [17]?
Answer: The Activity was 66%.

Question: What about the Activity [18] of the same molecule?
Answer: Its Activity is 72%.

Question: What about the Activity [19] of the same molecule?
Answer: The Activity was 72%.

Question: And the Activity [20]?
Answer: Its Activity is 76%.

Question: What about the Activity [21] of the same molecule?
Answer: The Activity was 82%.

Question: What about the Activity [22] of the same molecule?
Answer: The Activity was 69%.

Question: And the Activity [23]?
Answer: The Activity was 84%.

Question: What about the Activity [24] of the same molecule?
Answer: The Activity was 91%.

Question: What about the Activity [25] of the same molecule?
Answer: Its Activity is 79%.

Question: And the Activity [26]?
Answer: Its Activity is 82%.

Question: And the Activity [27]?
Answer: Its Activity is 94%.
